Data from patent US20160045505A1, “COMPOUNDS AND COMPOSITIONS FOR THE TREATMENT OF PARASITIC DISEASES” (NOVARTIS AG, priority 2013, published 2016).
Like-named read-outs stand apart in the source and are kept apart here.

Tests used:
[1] = tested on: Leishmania donovani axenic amastigote parasites; experiment: Leishmania donovani axenic amastigote proliferation assay (Cell TiterGlo luminescence, 2 day incubation); format: cell-based; conditions: Leishmania donovani, axenic amastigotes, inhibition of proliferation; read-out: L. donovani amastigotes EC50
[2] = tested on: Trypanosoma cruzi amastigotes (Tulahuen strain expressing Lac-Z) cultured in 3T3 fibroblast cells; experiment: microbe, parasite or virus in culture; format: cell-based; conditions: Trypanosoma cruzi, TULAHUEN, Fibroblast, T. cruzi amastigotes in 3T3 fibroblast cells, inhibition of proliferation; read-out: T cruzi EC50
[3] = tested on: L. donovani HU3 strain in mouse peritoneal macrophages; experiment: Assay for proliferation of Leishmania parasites in infected mouse peritoneal macrophages (SybrGreen staining, high-content imaging, 5 days); format: cell-based, Leishmania donovani; conditions: Leishmania donovani, Peritoneal macrophage, L. donovani in mouse peritoneal macrophages, inhibition of proliferation; read-out: L. donovani Macrophage EC50
[4] = tested on: Trypanosoma brucei Lister 427 strain, bloodstream form; experiment: Assay for proliferation of kinetoplastid parasite Trypanosoma brucei (Cell Titer Glo, 48 hours); format: cell-based; conditions: Trypanosoma brucei, read-out: T. brucei EC50
How it was run: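 Bloodstream-form T. brucei Lister 427 in HMI-9 medium was exposed to compound (DMSO vehicle) for 48 hours at 37° C, 5% CO2. Parasite growth was read as ATP by CellTiter-Glo luminescence, with EC50 calculated from percent inhibition.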

[5] = T. brucei Lister 427 bloodstream form, inhibition of proliferation

SMILES | EC50 [1] [nM] | EC50 [2] [nM] | EC50 [3] [nM] | EC50 [4, 5] [nM] | EC50 [4] [nM]
CC(C)OC(=O)Nc1cnc2nc(-c3cc(NC(=O)N4CC[C@@H](F)C4)ccc3F)cn2c1 [Compound 229] | 884 | 11000 | 2820 | 776 | 
CN(C)C(=O)Nc1ccc(F)c(-c2cn3cc(F)cnc3n2)c1 [Compound 230] | 2730 | 1310 | 11700 | 323 | 
O=C(Nc1ccc(F)c(-c2cn3cc(F)cnc3n2)c1)N1CC(F)C1 [Compound 231] | 307 | 420 | 1720 | 313 | 
O=C(Nc1ccc(F)c(-c2cn3cc(F)cnc3n2)c1)N1CCC1 [Compound 232] | 381 | 384 | 1650 | 203 | 
O=C(Nc1ccc(F)c(-c2cn3cc(F)cnc3n2)c1)N1CC(F)(F)C1 [Compound 233] | 290 | 754 | 2050 | 326 | 
O=C(Nc1ccc(F)c(-c2cn3cc(F)cnc3n2)c1)N1CC[C@@H](F)C1 [Compound 234] | 219 | 155 | 741 | 151 | 
O=C(Nc1ccc(F)c(-c2cn3cc(Cl)cnc3n2)c1)N1CC(F)(F)C1 [Compound 235] | 215 | 433 | 821 | 165 | 
O=C(Nc1ccc(F)c(-c2cn3cc(Cl)cnc3n2)c1)N1CC[C@@H](F)C1 [Compound 236] | 95 | 98 | 434 | 36 | 
O=C(Nc1ccc(F)c(-c2cn3cc(Cl)cnc3n2)c1)N1CCC1 [Compound 237] | 217 | 229 | 877 | 122 | 
O=C(Nc1ccc(F)c(-c2cn3cc(Cl)cnc3n2)c1)N1CC(F)C1 [Compound 238] | 208 | 233 | 788 | 117 | 
CN(C)C(=O)Nc1ccc(F)c(-c2cn3cc(C(F)F)cnc3n2)c1 [Compound 239] | 515 | 372 | 2200 | 350 | 
CC(C)OC(=O)Nc1cnc2nc(-c3cc(NC(=O)C4CC4)ccc3F)cn2c1 [Compound 240] | 1180 | 602 | > 50000 | 439 | 
CC(C)OC(=O)Nc1cnc2nc(-c3cc(NC(=O)c4nccs4)ccc3F)cn2c1 [Compound 242] | 687 | 198 | 2200 | 477 | 
CC(C)OC(=O)Nc1cnc2nc(-c3cc(NC(=O)c4nccs4)ccc3Cl)cn2c1 [Compound 243] | 780 | 150 | 2610 | 369 | 
CC(C)OC(=O)Nc1cnc2nc(-c3cc(NC(=O)c4ccco4)ccc3Cl)cn2c1 [Compound 244] | 152 | 55 | 345 | 65 | 
CC(C)OC(=O)Nc1cnc2nc(-c3cc(NC(=O)C4CC4)ccc3Cl)cn2c1 [Compound 245] | 1690 | 1130 | 2030 | 1400 | 
CC(C)OC(=O)Nc1cnc2nc(-c3cc(NC(=O)N(C)C)ccc3Cl)cn2c1 [Compound 246] | 562 | 622 | 1190 | 85 | 
CCC(=O)Nc1ccc(Cl)c(-c2cn3cc(NC(=O)OC(C)C)cnc3n2)c1 [Compound 247] | 740 | 575 | 3250 | 367 | 
Cc1nc(C)c(C(=O)Nc2ccc(F)c(-c3cn4cc(NC(=O)C5CC5)cnc4n3)c2)o1 [Compound 248] | 191 | > 20000 | 411 | 169 | 
CC(C)CN(C)C(=O)Nc1ccc(Cl)c(-c2cn3cc(NC(=O)OC(C)C)cnc3n2)c1 [Compound 249] | 3370 | 1340 | 5550 |  | 4070
